# Patent US20060039883A1, “Biologically active compounds for the modification of bodily odours” (priority 2002, published 2006)
# Assays:
# female sticklebacks = test: Flow channel odour preference / mate choice experiment with sticklebacks; format: in vivo, Gasterosteus aculeatus
# Experimental: The source of sticklebacks has been described (7). The flow channel set-up to evaluate mate choice determines odour preference, as a precursor of mate choice. Water was taken from the tank of a single male per trial and used both as stimulus (after addition of peptide(s)) and control (after addition of solvent) water. Peptides were added to the bottle with stimulus water just before the experiment at a final concentration of 1 mM; this becomes diluted to 5 nM in the water column passing through the test compartment. The following nona-peptides were used, MHC specificities indicated in brackets: […] (H2-K^b); […] and AAPDNRETF (H2-D^b); SYFPEITHI and SYIPSAEKI (H2-K^d). Peptides were synthesized by solid-phase 9-fluorenylmethoxycarbonyl chemistry. In experiments using a single peptide, AAPDNRETF was used. All experiments were performed in double-blinded fashion as described. Statistical analysis was performed with JMP 4.
# The binding preferences for peptides of MHC molecules of sticklebacks are unknown; therefore synthetic peptides derived from endogenous mouse and viral proteins that are ligands for different mouse MHC molecules were used. Such peptides almost certainly appear foreign to sticklebacks irrespective of their MHC genotypes. Gravid females prefer water from a tank harbouring a male to that from a tank with fresh water (Experiment A, Table 1). Therefore, it was tested whether addition of peptide(s) to water from individual males would alter the outcome of mate choice. Gravid females were presented with water from single males with and without the addition of a mixture of five different peptides in the two columns of a flow-channel.
# human beings = test: Odour evaluation of paired aqueous solutions by test persons (similar or different); format: in vivo; settings: 0.5 mM in phosphate buffered saline
# Experimental: Several individuals were asked to evaluate the odour of a number of aqueous solutions. A prototypical MHC class I peptide (SLLPAIVEL), a known ligand of the A′02xx allele, or an equimolar mixture of the corresponding amino acids (S, L, P, A, I, V, E) were added to solvent (phosphate buffered saline) at final concentrations of 0.5 mM. These solutions were offered in pairs and the test persons were asked to decide whether the two solutions smelled similar or different. The probands easily distinguish peptides from amino acids.
# [1] = Test pair Peptide vs. Amino acids
Sequence,"Time spent on side of water source 2 (female sticklebacks; Experiment B, gravid females, Fresh + 1 peptide vs Fresh + solvent, 5 nM in water column, n=24) [s]","Attractiveness of peptide in plain tank water (in words) (female sticklebacks; Experiment B, gravid females, plain tank water)","Time spent on side of water source 2 (female sticklebacks; Experiment C, gravid females, Male + 1 peptide vs Male + solvent, 5 nM, n=25) [s]","Time spent on side of water source 2 (female sticklebacks; Experiment C, gravid females, Male + 1 peptide vs Male + solvent, 5 nM, n=25, listed as one peptide) [s]","Time spent on side of water source 2 (female sticklebacks; Experiment E, non-gravid females, Male + 1 peptide vs Male + solvent, 5 nM, n=25) [s]","Preference for male water with vs without peptide (in words) (female sticklebacks; Experiment E, non-gravid fish, male water)","Excess time spent on the side of peptide-supplemented male water (female sticklebacks; gravid females, male water, excess over 300 sec) [s]",Probands scoring difference (human beings; [1]),Probands scoring difference (fraction) (human beings; [1]),Probands scoring difference (human beings; Test pair Peptide vs. Peptide),Probands scoring difference (fraction) (human beings; Test pair Peptide vs. Peptide)
"AAPDNRETF [1 peptide, synthetic nona-peptide, H2-D^b ligand; used in experiments using a single peptide]",291.8 ± 24.6,not attractive,327.7 ± 24.8,327.7 ± 24.8,308.1 ± 23.5,no preference was observed,27.7 ± 12.4,–,–,–,–
"SLLPAIVEL [Peptide, prototypical MHC class I peptide, known ligand of the A*02xx allele]",–,–,–,–,–,–,–,13/14,(0.93),1/14,(0.07)
